Series [1] concerns zebrafish larvae. As to the kind of experiment: Behavioral screen of 190 FDA-approved drugs in 5-day-old zebrafish larvae (activity, optomotor and acoustic responses). As to conditions: 10 μM, 5 dpf larvae, vs DMSO. The format is in vivo, Danio rerio. An excerpt:
Zebrafish. The research project has been conducted in accordance with local and federal guidelines for ethical and humane use of animals and has been reviewed and approved by the Brown University Institutional Animal Care and Use Committee. Zebrafish (Danio rerio) embryos were collected and grown to larval stages as previously described. Pelkowski et al., Behav Brain Res 223, 135-144 (2011). Adult wild-type zebrafish are maintained at Brown University as a genetically-diverse outbred strain in a mixed male and female population. […] Embryos and larvae were kept on a 12 hour light/12 hour dark cycle and were randomly assigned to different experimental groups prior to experimental manipulation. The sex of embryos and larvae cannot be determined at such early stages because zebrafish use elusive polygenic factors for sex determination, and both males and females have juvenile ovaries between 2.5 and 4 weeks of development. Zebrafish larvae were imaged at 5 dpf when the larvae display a range of locomotor behaviors and consume nutrients available in the yolk sac. Clift et al., Zebrafish 11, 455-461 (2014). Larvae are approximately 4 mm long at the 5 dpf stage. Pharmacological treatments. Zebrafish larvae were treated with 190 FDA-approved compounds using a Tocris small-molecule library (Tocris Bioscience, Cat. No. 7200). […] Larvae were first treated in a Petri dish for 2 hours, transferred with the treatment solution to white 96-well ProxiPlates (PerkinElmer, 6006290) for 1 hour, and then imaged in the treatment solution for 3 hours. Imaging system. Zebrafish larvae were imaged in an imaging system that holds four 96-well plates for automated analysis of behavior in a 384-well format (FIG. 1). Briefly, the imaging system is housed in a 28.5° C. temperature-controlled cabinet where larvae in white 96-well ProxiPlates are placed onto a glass stage. Above the stage, a high-resolution camera (18-megapixel Canon EOS Rebel T6 with an EF-S 55-250 mm f/4.0-5.6 IS zoom lens) captures an image of the larvae in the four 96-well plates every 6 seconds. The camera is connected to a continuous power supply (Canon ACK-E10 AC Adapter) and controlled by a laptop computer using Canon's Remote Capture software (EOS Utility, version 3), which is included with the camera. Two small speakers (OfficeTec USB Computer Speakers Compact 2.0 System) were attached speaker-side down to the glass stage. Speakers were connected by USB to the laptop computer and set to maximum volume. […] Behavioral assay. Visual and acoustic stimuli are controlled by an automated 3-hour PowerPoint presentation that is shown to the larvae. […] Larvae were not exposed to visual stimuli and acoustic stimuli at the same time. The visual stimuli consisted of a series of moving lines that were red, green or blue. Prior studies have shown that zebrafish larvae will swim in the same direction as moving lines, a behavior that is called an optomotor response or OMR (19, 28). Our previously-developed assays for visually-guided behaviors indicate 5 dpf larvae consistently respond to 1 mm thick lines set 7 mm apart that move 7 mm per 8 seconds downwards or upwards, alternating direction in 10-minute periods (19). Additionally, the presentation included red lines that moved at a faster speed of 7 mm per 0.5 seconds (16× faster). […]

The subject of series [2] is zebrafish larvae. Description: Acute exposure of 5 dpf zebrafish larvae to modulators of calcineurin signaling, automated analysis of behavior. The format is in vivo, Danio rerio. As to the method:
Zebrafish larvae were treated at 5 dpf with various modulators of calcineurin signaling, starting 3 hours before imaging. The larvae were then imaged for a total of 3 hours using a behavioral assay with various visual and acoustic stimuli (FIG. 6). The behavioral assay started with a 1-hour period without stimuli, followed by 80 minutes with visual stimuli, 10 minutes without visual or acoustic stimuli, and 30 minutes with acoustic stimuli. Values of activity (% move) and position (% up) were averaged in individual larvae during 10-minute periods, for a total of 18 periods. These values were subsequently averaged between larvae in the same treatment group. We examined a total of 10 treatment groups. For clarity, only 3 treatment groups were graphed (FIG. 6), but all 10 treatment groups were analyzed in detail as shown in subsequent figures. […] The assay provides quantitative information on activity, visually-guided behaviors and acoustic startle responses.
To determine if larval zebrafish behavior is affected by modulation of calcineurin signaling, we imaged 5 day-old larvae in the following 10 treatment groups: 10 μM cyclosporine A (CsA), 1 μM tacrolimus (FK506), 5 or 10 μM proINDY, a combination of CsA+5 or 10 μM proINDY, or a combination of FK506+5 or 10 μM proINDY, DMSO as a vehicle control, and 1 μM rapamycin as a control for target specificity. Rapamycin and FK506 are both macrolide immunosuppressants with similar structures, however, rapamycin affects Target of Rapamycin (TOR) signaling instead of calcineurin signaling. Vellanki et al., Front Mol Biosci 7, 588913 (2020). The concentrations of CsA, FK506 and rapamycin were selected based on prior studies in zebrafish embryos and larvae. Clift et al., Behav Brain Res 282, 117-124 (2015). The two concentrations of proINDY, a membrane-permeable form of INDY (inhibitor of DYRK), were selected based on studies in cell lines and Xenopus embryos. Ogawa et al., Nat Commun 1, 86 (2010).
The research project has been conducted in accordance with local and federal guidelines for ethical and humane use of animals and has been reviewed and approved by the Brown University Institutional Animal Care and Use Committee. Zebrafish (Danio rerio) embryos were collected and grown to larval stages as previously described. Thorn et al., Sci Rep 9, 13989 (2019). Adult wild-type zebrafish are maintained at Brown University as a genetically-diverse outbred strain in a mixed male and female population. Zebrafish embryos from 0-3 days post-fertilization (dpf) and zebrafish larvae from 3-5 dpf were maintained at 28.5° C. in 2 L culture trays with egg water, containing 60 mg/L sea salt (Instant Ocean) and 0.25 mg/L methylene blue in deionized water. Embryos and larvae were kept on a 12 hour light/12 hour dark cycle and were randomly assigned to different experimental groups prior to experimental manipulation. The sex of embryos and larvae cannot be determined at such early stages because zebrafish use elusive polygenic factors for sex determination, and both males and females have juvenile ovaries between 2.5 and 4 weeks of development. Zebrafish larvae were imaged at 5 dpf when the larvae display a range of locomotor behaviors and consume nutrients available in the yolk sac. Larvae are approximately 4 mm long at the 5 dpf stage.
Cyclosporine (cyclosporin A, Enzo Life Sciences), FK506 (tacrolimus, Enzo Life Sciences), rapamycin (Santa Cruz Biotechnology) and proINDY (Tocris Bioscience) were diluted in egg water from 1000× stocks dissolved in dimethyl sulfoxide (DMSO). DMSO (1 μl/ml DMSO) was added to the single treatments and the corresponding DMSO concentration was used as a vehicle control for all solutions. Larvae were exposed at 5 dpf to treatment solutions or DMSO for a total of 6 hours. Larvae were first treated in a Petri dish for 2 hours, transferred with the treatment solution to white 96-well ProxiPlates (PerkinElmer, 6006290) for 1 hour, and then imaged in the treatment solution for 3 hours. […]

For series [3], the system named is zebrafish embryos and larvae. As to the kind of experiment: Developmental exposure (2-3, 3-4 or 4-5 dpf) of zebrafish to modulators of calcineurin signaling, behavior imaged at 5 dpf. The format is in vivo. The method, then:
Zebrafish. Adult wild type zebrafish (Danio rerio) are maintained at Brown University as a genetically-diverse outbred strain in a mixed male and female population. Zebrafish embryos were collected and grown to larval stages as described previously. Thorn et al., Sci Rep 9, 13989 (2019). Embryos from 0-3 days post-fertilization (dpf) and larvae from 3-5 dpf were kept on a 12 hour light/12 hour dark cycle at 28.5° C. in 2 L culture trays with egg water, containing 60 mg/L sea salt (Instant Ocean) and 0.25 mg/L methylene blue in deionized water. Zebrafish embryos and larvae were randomly assigned to different experimental groups prior to experimental manipulation. The sex of embryos and larvae cannot be determined at such early stages because zebrafish use elusive polygenic factors for sex determination, and both males and females have juvenile ovaries between 2.5 and 4 weeks of development. Liew et al., Brief Funct Genomics 13(2), 172-187 (2014). Zebrafish larvae were imaged at 5 dpf when they are approximately 4 mm long, display a range of locomotor behaviors and consume nutrients available in the yolk sac. Clift et al., Zebrafish 11(5), 455-461 (2014).
Pharmacological treatments. Zebrafish embryos and larvae were treated with 10 μM CsA (cyclosporin A, Enzo Life Sciences), 1 μM FK506 (tacrolimus, Enzo Life Sciences), 1 μM rapamycin (Santa Cruz Biotechnology), 5 μM proINDY (Tocris Bioscience) or co-treatments of either 10 μM CsA+5 μM proINDY or 1 μM FK506+5 μM proINDY. […] Clift et al., Behav Brain Res, 282, 117-124 (2015). […] Robinson et al., J Appl Toxicol 37(12), 1438-1447 (2017). […] All administered compounds were diluted in egg water from 1000× stocks dissolved in dimethyl sulfoxide (DMSO). The corresponding DMSO concentration (1 μl DMSO/ml egg water) was used as a vehicle control. Embryos and larvae were treated during one of the following developmental stages: 2-3, 3-4, or 4-5 dpf. The embryos and larvae were treated in 10 cm Petri dishes for 24 hours, rinsed three times with egg water, and then transferred to new Petri dishes with egg water. Larvae that were treated from 4-5 dpf were rinsed and kept in egg water for 3 hours prior to imaging, typically from 10 am to 1 pm. All treatment groups were imaged at 5 dpf in egg water. For imaging, larvae were transferred to white 96-well ProxiPlates (PerkinElmer, 6006290) and were imaged for 3 hours, typically from 1-4 pm (FIG. 12).
Imaging of zebrafish larvae. Zebrafish larvae were imaged in a 384-well imaging system as described previously. Thorn et al., Sci Rep 9, 13989 (2019). Briefly, four 96-well ProxiPlates were placed on a glass stage inside a temperature-controlled cabinet, set at 28.5° C. The upper shelf of the cabinet holds a high-resolution camera (18-megapixel Canon EOS Rebel T6 with an EF-S 55-250 mm f/4.0-5.6 IS zoom lens), connected to a continuous power supply (Canon ACK-E10 AC Adapter) and controlled by a laptop computer. Images are acquired using Canon's Remote Capture software (EOS Utility, version 3), which is included with the camera. Every 6 seconds, the camera acquires a high-resolution image of larvae in the microplates (FIG. 12). Two small speakers (OfficeTec USB Computer Speakers Compact 2.0 System) are located speaker-side down on the glass stage. Speakers were connected by USB to the laptop computer and set to maximum volume (85 dBA).
Behavioral assay. Larval behaviors were imaged for 3 hours, as described previously. Thorn et al., Sci Rep 9, 13989 (2019). […] The PowerPoint started with a light background for 60 minutes without visual or acoustic stimuli, followed by 80 minutes with visual stimuli, 10 minutes without stimuli, and 30 minutes with acoustic stimuli (FIG. 12). Larvae were not exposed to visual stimuli and acoustic stimuli at the same time. The visual stimuli consisted of a series of lines that moved upwards or downwards in the microplates, in a horizontal plane. […]

Where [4] appears, read: 5 μM proINDY, 5 dpf acute, vs DMSO.
Where [5] appears, read: 5 dpf acute exposure, vs DMSO, 10 μM CsA, 1 μM FK506, 1 μM rapamycin, proINDY.

Entries after “also recorded” stand apart in the source; their conditions may differ.

On to `CCCCC1=NC2(CCCC2)C(=O)N1Cc1ccc(-c2ccccc2-c2nnn[nH]2)cc1` [Irbesartan], for which, in the series with zebrafish larvae [1], the activity result is “increased activity”, the “excitability (E) in response to acoustic stimuli at 1-second intervals” value is reported as “did not increase excitability; also recorded: does not increase excitability” and the “optomotor response (OMR)” value is on record as “decreased optomotor responses”.

For the compound `Brc1c(NC2=NCCN2)ccc2nccnc12` [UK 14,304], in the series on zebrafish larvae [1], the activity entry is “decrease in activity” and the “optomotor response (OMR)” value is on record as “increase in optomotor responses”.

`CCN1/C(=C/C(C)=O)Sc2ccc(OC(C)=O)cc21` [proINDY, ProINDY]: the “early activity (first hour of imaging)” value with zebrafish larvae [2] (setting [4]) is “reduced early and late activity”; in the series with zebrafish larvae [2] (setting [5]) it was “decrease in early activity”. Further, the “late activity (period 15)” value with zebrafish larvae [2] (setting [4]) was “reduced early and late activity”; in the series with zebrafish larvae [2] (10 μM proINDY, 5 dpf acute, vs DMSO), “reduced late activity only”; with zebrafish larvae [2] (setting [5]), “decreased activity”; in series [3] (exposure 2-3 dpf) it was “decreased activity”; in series [3] (exposure 4-5 dpf), “increased activity”. Further, the “optomotor response (OMR)” value in the series on zebrafish larvae [2] (5 dpf acute exposure, vs DMSO) is reported as “increased optomotor responses; also recorded: increase in the optomotor response”. Moreover, in the series on zebrafish larvae [2] (5 dpf acute exposure, vs DMSO, 10 μM CsA, 1 μM FK506, proINDY 5 or 10 μM), the activity result is “decreased activity; also recorded: decrease in activity”. Besides, the “optomotor response to fast red lines” value with zebrafish larvae [2] (5 dpf acute, lines 16x faster) was “increase in the optomotor response”. For the same compound, in the series on zebrafish larvae [2] (5 dpf acute, vs DMSO), the “excitability (acoustic stimuli at 1-second intervals)” value is reported as “increased excitability”. Moreover, in the series on zebrafish larvae [2] (5 dpf acute, vs DMSO), the “startle responses to acoustic stimuli at 20-second intervals” value is listed as “slightly elevated”. In the series with zebrafish larvae [2] (5 dpf acute, vs DMSO, proINDY 5 μM), the “optomotor response to red lines” value was “increased optomotor response”. Also, the larval survival entry in series [3] (developmental exposures to 10 μM proINDY) is recorded as “affected larval survival”. Further, the “OMR RGB” value in series [3] (exposure 2-3 dpf) and in series [3] (exposure 4-5 dpf) was “decrease in OMR RGB” throughout. In addition, the “startle responses (20-second interval)” value in series [3] (exposure 3-4 dpf) is “decrease startle responses”.

Values taken from patent US20240245806A1, “TREATMENT OF NEURODEGENERATIVE DISEASE USING CSA- AND INDY-TYPE COMPOUNDS” (BROWN UNIVERSITY, priority 2021, published 2024).
